# According to patent publication US11426412B2, “Imidazo-pyridine compounds as PAD inhibitors” (JUBILANT EPIPAD LLC, priority 2017, dated 2022):
# Where a name gives a salt, the structure may show the parent alone. Read-outs that look alike come from different tables or passages of the source.
# Target: PAD4 (Homo sapiens (Human), UniProt Q9UM07)
# Experiment: Ammonia release biochemical assay (citrullination)
# [1] = read-out: NH3 release biochemical assay PAD4 IC50
# [2] = Table 1, class A, read-out: IC50 value, ammonia release biochemical assay
# Chain of PAD4 (Q9UM07 whole entry): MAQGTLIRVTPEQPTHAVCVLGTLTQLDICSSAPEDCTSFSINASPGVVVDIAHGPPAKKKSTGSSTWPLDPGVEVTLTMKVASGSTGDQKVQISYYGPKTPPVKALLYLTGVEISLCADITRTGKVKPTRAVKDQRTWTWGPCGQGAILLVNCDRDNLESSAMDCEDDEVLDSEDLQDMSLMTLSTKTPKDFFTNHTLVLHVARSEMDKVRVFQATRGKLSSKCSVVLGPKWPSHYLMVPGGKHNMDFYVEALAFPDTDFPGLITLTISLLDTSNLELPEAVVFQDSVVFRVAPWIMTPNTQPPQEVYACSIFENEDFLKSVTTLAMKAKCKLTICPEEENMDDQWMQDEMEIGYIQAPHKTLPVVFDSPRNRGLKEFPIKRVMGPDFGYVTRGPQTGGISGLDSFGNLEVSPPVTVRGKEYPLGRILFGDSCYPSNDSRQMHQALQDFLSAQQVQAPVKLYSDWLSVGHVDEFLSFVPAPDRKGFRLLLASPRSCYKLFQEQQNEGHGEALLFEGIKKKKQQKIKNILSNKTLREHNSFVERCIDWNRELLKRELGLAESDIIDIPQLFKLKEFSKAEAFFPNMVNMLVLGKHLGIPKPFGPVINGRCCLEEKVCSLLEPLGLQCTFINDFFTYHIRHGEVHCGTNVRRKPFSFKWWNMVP
IC50 [1] [nM],IC50 [2] [nM],Compound
< 1000,–,"COc1ccc(Cn2c(-c3nc4cc(C(=O)N5CCC[C@@H](N)C5)ccn4c3C)cc3ccc(F)cc32)cc1 [Compound 71, (R)-(3-aminopiperidin-1-yl)(2-(6-fluoro-1-(4-methoxybenzyl)-1H-indol-2-yl)-3-methylimidazo[1,2-a]pyridin-7-yl)methanone]"
< 1000,–,"CCn1c(-c2nc3cc(C(=O)N4CCC[C@@H](N)C4)ccn3c2C)cc2ccc(OC)cc21 [Compound 67, (R)-(3-aminopiperidin-1-yl)(2-(1-ethyl-6-methoxy-1H-indol-2-yl)-3-methylimidazo[1,2-a]pyridin-7-yl)methanone]"
< 1000,–,"COc1cccc(Cn2c(-c3nc4cc(C(=O)N5CCC[C@@H](N)C5)ccn4c3C)cc3cc(F)c(F)cc32)c1 [Compound 55, (R)-(3-aminopiperidin-1-yl)(2-(5,6-difluoro-1-(3-methoxybenzyl)-1H-indol-2-yl)-3-methylimidazo[1,2-a]pyridin-7-yl)methanone]"
< 1000,≤ 1000,"COc1ccc2cc(-c3nc4cc(C(=O)N5CCC[C@@H](N)C5)ccn4c3C)n(CC(C)C)c2c1 [Compound 82, (R)-(3-aminopiperidin-1-yl)(2-(1-isobutyl-6-methoxy-1H-indol-2-yl)-3-methylimidazo[1,2-a]pyridin-7-yl)methanone]"
< 1000,≤ 1000,"COc1cc(Cn2c(-c3nc4cc(C(=O)N5CCC[C@@H](N)C5)ccn4c3C)cc3ccccc32)ccc1F [Compound 85, (R)-(3-aminopiperidin-1-yl)(2-(1-(4-fluoro-3-methoxybenzyl)-1H-indol-2-yl)-3-methylimidazo[1,2-a]pyridin-7-yl)methanone]"
< 1000,≤ 1000,"COc1ccc2cc(-c3nc4cc(C(=O)N5CCC[C@@H](N)C5)ccn4c3C)n(CC(F)F)c2c1 [Compound 83, (R)-(3-aminopiperidin-1-yl)(2-(1-(2,2-difluoroethyl)-6-methoxy-1H-indol-2-yl)-3-methylimidazo[1,2-a]pyridin-7-yl)methanone]"
< 1000,–,"Cc1c(-c2cc3ccc(F)cc3n2Cc2ccncc2)nc2cc(C(=O)N3CCC[C@@H](N)C3)ccn12 [Compound 68, (R)-(3-aminopiperidin-1-yl)(2-(6-fluoro-1-(pyridin-4-ylmethyl)-1H-indol-2-yl)-3-methylimidazo[1,2-a]pyridin-7-yl)methanone]"
< 1000,–,"Cc1c(-c2cc3ccccc3n2Cc2cccc(F)c2)nc2cc(C(=O)N3CCC[C@@H](N)C3)ccn12 [Compound 35, (R)-(3-aminopiperidin-1-yl)(2-(1-(3-fluorobenzyl)-1H-indol-2-yl)-3-methylimidazo[1,2-a]pyridin-7-yl)methanone]"
< 1000,–,"Cc1c(-c2cc3ccccc3n2Cc2ccoc2)nc2cc(C(=O)N3CCC[C@@H](N)C3)ccn12 [Compound 37, (R)-(3-aminopiperidin-1-yl)(2-(1-(furan-3-ylmethyl)-1H-indol-2-yl)-3-methylimidazo[1,2-a]pyridin-7-yl)methanone]"
< 1000,–,"COc1ccc2cc(-c3nc4cc(C(=O)N5CCC[C@@H](N)C5)ccn4c3C)n(Cc3ccc(F)cc3)c2c1 [Compound 80, (R)-(3-aminopiperidin-1-yl)(2-(1-(4-fluorobenzyl)-6-methoxy-1H-indol-2-yl)-3-methylimidazo[1,2-a]pyridin-7-yl)methanone]"
< 1000,–,"COc1cccc(Cn2c(-c3nc4cc(C(=O)N5CCC[C@@H](N)C5)ccn4c3C)cc3ccc(F)cc32)c1 [Compound 70, (R)-(3-aminopiperidin-1-yl)(2-(6-fluoro-1-(3-methoxybenzyl)-1H-indol-2-yl)-3-methylimidazo[1,2-a]pyridin-7-yl)methanone]"
< 1000,≤ 1000,"Cc1c(-c2cc3ccccc3n2Cc2cncnc2)nc2cc(C(=O)N3CCC[C@@H](N)C3)ccn12 [Compound 58, (R)-(3-aminopiperidin-1-yl) (3-methyl-2-(1-(pyrimidin-5-ylmethyl)-1H-indol-2-yl)imidazo[1,2-a]pyridin-7-yl)methanone Trifluoroacetic Acid Salt]"
< 1000,–,"COc1cccc(Cn2c(-c3nc4cc(C(=O)N5CCC[C@@H](N)C5)ccn4c3C)cc3cc(F)ccc32)c1 [Compound 53, (R)-(3-aminopiperidin-1-yl)(2-(5-fluoro-1-(3-methoxybenzyl)-1H-indol-2-yl)-3-methylimidazo[1,2-a]pyridin-7-yl)methanone]"
< 1000,–,"Cc1c(-c2cc3cc(F)ccc3n2Cc2ccncc2)nc2cc(C(=O)N3CCC[C@@H](N)C3)ccn12 [Compound 74, (R)-(3-aminopiperidin-1-yl)(2-(5-fluoro-1-(pyridin-4-ylmethyl)-1H-indol-2-yl)-3-methylimidazo[1,2-a]pyridin-7-yl)methanone]"
> 10000,–,"COc1ccc2cc(-c3nc4cc(C(=O)N5CCC[C@@H](N)C5)ccn4c3C)n(Cc3ccncc3)c2c1 [Compound 66, (R)-(3-aminopiperidin-1-yl)(2-(6-methoxy-1-(pyridin-4-ylmethyl)-1H-indol-2-yl)-3-methylimidazo[1,2-a]pyridin-7-yl)methanone]"
< 1000,–,"COc1ccc(Cn2c(-c3nc4cc(C(=O)N5CCC[C@@H](N)C5)ccn4c3C)cc3cc(F)ccc32)cc1 [Compound 75, (R)-(3-aminopiperidin-1-yl)(2-(5-fluoro-1-(4-methoxybenzyl)-1H-indol-2-yl)-3-methylimidazo[1,2-a]pyridin-7-yl)methanone]"
< 1000,–,"COc1ccc2cc(-c3nc4cc(C(=O)N5CCC[C@@H](N)C5)ccn4c3C)n(Cc3cccnc3)c2c1 [Compound 51, (R)-(3-aminopiperidin-1-yl) (2-(6-methoxy-1-(pyridin-3-ylmethyl)-1H-indol-2-yl)-3-methylimidazo[1,2-a]pyridin-7-yl)methanone]"
< 1000,–,"Cc1c(-c2cc3ccc(F)cc3n2Cc2ccc(F)cc2)nc2cc(C(=O)N3CCC[C@@H](N)C3)ccn12 [Compound 54, (R)-(3-aminopiperidin-1-yl)(2-(6-fluoro-1-(4-fluorobenzyl)-1H-indol-2-yl)-3-methylimidazo[1,2-a]pyridin-7-yl)methanone]"

# Second part, the compound before the results:
Compound,IC50 [1] [nM],IC50 [2] [nM]
"Cc1c(-c2cc3ccccc3n2Cc2ncccc2F)nc2cc(C(=O)N3CCC[C@@H](N)C3)ccn12 [Compound 62, (R)-(3-aminopiperidin-1-yl)(2-(1-((3-fluoropyridin-2-yl)methyl)-1H-indol-2-yl)-3-methylimidazo[1,2-a]pyridin-7-yl)methanone]",< 1000,–
"CCn1c(-c2nc3cc(C(=O)N4CC[C@@H](N)C4)ccn3c2C)c(-c2ccccc2)c2ccccc21 [Compound 6, (R)-(3-Aminopyrrolidin-1-yl)(2-(1-ethyl-3-phenyl-1H-indol-2-yl)-3-methylimidazo[1,2-a]pyridin-7-yl)methanone]",> 10000,–
"CCn1c(-c2nc3cc(C(=O)N4CC[C@@H](N)C4)ccn3c2C)cc2ccccc21 [Compound 7, (R)-(3-Aminopyrrolidin-1-yl)(2-(1-ethyl-1H-indol-2-yl)-3-methylimidazo[1,2-a]pyridin-7-yl)methanone]",> 10000,–
"Cc1c(-c2cc3ccccc3n2Cc2ccc(F)cc2)nc2cc(C(=S)N3CCC[C@@H](N)C3)ccn12 [Compound 45, (R)-(3-aminopiperidin-1-yl)(2-(1-(4-fluorobenzyl)-1H-indol-2-yl)-3-methylimidazo[1,2-a]pyridin-7-yl)methanethione]",< 1000,≤ 1000
"Cc1c(-c2cc3cccc(Cl)c3n2Cc2ccc(F)cc2)nc2cc(C(=O)N3CCC[C@@H](N)C3)ccn12 [Compound 77, (R)-(3-aminopiperidin-1-yl)(2-(7-chloro-1-(4-fluorobenzyl)-1H-indol-2-yl)-3-methylimidazo[1,2-a]pyridin-7-yl)methanone]",< 1000,–
"Cc1c(-c2c(Br)c3ccccc3n2CC2CC2)nc2cc(C(=O)N3CCC[C@@H](N)C3)ccn12 [Compound 1, (R)-(3-Aminopiperidin-1-yl)(2-(3-bromo-1-(cyclopropylmethyl)-1H-indol-2-yl)-3-methylimidazo[1,2-a]pyridin-7-yl)methanone]",> 10000,–
"Cc1c(-c2cc3ccccc3n2CC(C)C)nc2cc(C(=O)N3CCC[C@@H](N)C3)ccn12 [Compound 60, (R)-(3-aminopiperidin-1-yl)(2-(1-isobutyl-1H-indol-2-yl)-3-methylimidazo[1,2-a]pyridin-7-yl)methanone]",< 1000,–
"Cc1c(-c2cc3ccccc3n2CC(F)F)nc2cc(C(=O)N3CCC[C@@H](N)C3)ccn12 [Compound 78, (R)-(3-aminopiperidin-1-yl)(2-(1-(2,2-difluoroethyl)-1H-indol-2-yl)-3-methylimidazo[1,2-a]pyridin-7-yl)methanone Trifluoroacetic Acid Salt]",< 1000,–
"Cc1c(-c2cc3cccc(Cl)c3n2CC2CC2)nc2cc(C(=O)N3CCC[C@@H](N)C3)ccn12 [Compound 44, (R)-(3-aminopiperidin-1-yl)(2-(7-chloro-1-(cyclopropylmethyl)-1H-indol-2-yl)-3-methylimidazo[1,2-a]pyridin-7-yl)methanone]",< 1000,≤ 1000
"CCn1c(-c2nc3cc(C(=O)N4CCC[C@@H](N)C4)ccn3c2C)cc2ccc(F)cc21 [Compound 72, (R)-(3-aminopiperidin-1-yl)(2-(1-ethyl-6-fluoro-1H-indol-2-yl)-3-methylimidazo[1,2-a]pyridin-7-yl)methanone]",< 1000,–
"Cc1csc(Cn2c(-c3nc4cc(C(=O)N5CCC[C@@H](N)C5)ccn4c3C)cc3ccccc32)n1 [Compound 41, (R)-(3-aminopiperidin-1-yl)(3-methyl-2-(1-((4-methylthiazol-2-yl)methyl)-1H-indol-2-yl)imidazo[1,2-a]pyridin-7-yl)methanone]",< 1000,≤ 1000
"Cc1c(-c2cc3ccccc3n2Cc2ccc(F)cn2)nc2cc(C(=O)N3CCC[C@@H](N)C3)ccn12 [Compound 79, (R)-(3-aminopiperidin-1-yl)(2-(1-((5-fluoropyridin-2-yl)methyl)-1H-indol-2-yl)-3-methylimidazo[1,2-a]pyridin-7-yl)methanone]",< 1000,–
"Cc1c(-c2cc3cc(F)ccc3n2Cc2ccc(F)cc2)nc2cc(C(=O)N3CCC[C@@H](N)C3)ccn12 [Compound 76, (R)-(3-aminopiperidin-1-yl)(2-(5-fluoro-1-(4-fluorobenzyl)-1H-indol-2-yl)-3-methylimidazo[1,2-a]pyridin-7-yl)methanone]",< 1000,–
